This is an account of results in patent US20030125287A1, “Antisense oligonucleotides and methods to induce tumor cell death” (Hybridon, Inc., priority 2001, published 2003).

For data set [1], the system named is XIAP. As to conditions: MSN cells; 400 nM; 48 hours (FIG. 10A). The method, then:
MSN cells were treated with lipofectin or 400 nM survivin antisense oligonucleotides 900, 901, 903, 904, 905 and 906. Total protein was isolated 48 hours after treatment, and 100 μg of protein was loaded per lane. The blot was incubated with a monoclonal antibody against XIAP (1:1000; IgG1). Visualization was by enhanced chemiluminescence (ECL). […] The experiment was performed twice.
Total protein homogenates were prepared according to a previously described procedure (Albala et al. (1995) J. Neurochem. 64:2480-2490). Protein content was measured using the Bio-Rad detection system (Bio-Rad Laboratories, Hercules, Calif.). Equal amounts of protein were analyzed by SDS-PAGE on 10% gels (Laemmli (1970) Nature 227:680-685). The resolved polypeptides were electrophoretically transferred to nitrocellulose (Towbin et al. (1979) Proc. Natl. Acad. Sci. USA 76:4350-4354).
(§1) Survivin polyclonal antibody was purchased from R & D Systems, Inc. (Minneapolis, Minn.). […] A generic β-tubulin monoclonal antibody (TUB 2.1) was purchased from SIGMA (St. Louis, Mo.). The XIAP mAb was purchased from StressGen Biotechnologies Corp. (Victoria, Canada). The poly-ADP ribosyl polymerase (PARP) mAb was purchased from PharMingen/Transduction Laboratories (San Diego, Calif.).

In another data set the test system is survivin. The data set can be described thus: Western blot of survivin protein in antisense oligonucleotide-treated TC620 cells. It is filed as cell-based, human. As to conditions: for percentage of survivin protein over β-tubulin relative to lipofectin: 48 hours (FIG. 5A). How it is done:
Subconfluent TC620 oligodendroglioma cells were transfected with lipofectin or increasing concentrations of survivin antisense oligonucleotide 904 (25 nM to 400 nM). 75 µg of total protein was loaded per lane. Blots were cut at 32.9 kD and the bottom was incubated with a survivin polyclonal antibody (1:500), while the top was incubated with a β-tubulin monoclonal antibody (1:1000).
The antisense oligonucleotides were synthesized on solid support with an automated DNA synthesizer using β-cyanoethylphosphoramidite chemistry. In order to prevent rapid degradation of the antisense oligonucleotides by cellular nucleases, oxidation was carried out with Becauge sulfurizing agent to obtain phosphorothioate backbone modified oligonucleotides. After their synthesis, the oligonucleotides were released from the solid support, deprotected, purified by reverse-phase HPLC, desalted, filtered and lyophilized. The purity and sequence integrity of oligonucleotides was ascertained by capillary gel electrophoresis and MALDI-TOF mass spectral analysis and the concentrations measured at […]. Cells were grown in 100 mm dishes and oligonucleotide treatment was performed on subconfluent cultures in the presence of Lipofectin (GIBCO) according to the manufacturer. Forty-eight hours following treatment, total protein homogenates were isolated.
Ten micrograms of the fusion protein was incubated with the survivin antibody (1:500) at 4° C. for 2 hours to overnight prior to immunoblotting. […] Blots were cut at 32.9 kD, and the bottom part of the blots were incubated with the survivin antibody overnight at 4° C. and visualized by enhanced chemiluminescence (Enhanced Chemiluminescence, Amersham, Arlington Heights, Ill.) as previously described (Sharma et al. Cell. Motil. Cytoskeleton 27:234-247).

The subject of data set [2] is PARP. Particulars: TC620 cells; 100 nM to 400 nM (FIG. 5B). The method, then:
75 μg of total protein was loaded per lane. Following gel electrophoresis and transfer to nitrocellulose membrane, the blot was incubated with a PARP monoclonal antibody (1:500) and visualized by enhanced chemiluminescence.
as §1

The test system of data set [3] is XIAP. The data set can be described thus: Western blot of XIAP protein in TC620 cells. As to conditions: 48 hours (FIG. 10B). It is filed as cell-based, human. The method, then:
TC620 oligodendroglioma cells were transfected with lipofectin or increasing concentrations of survivin antisense oligonucleotide 904 (25 to 400 nM). Total protein was isolated after 48 hours of treatment and 75 μg of total protein was loaded per lane. The experiment was performed once.
For orientation: In western blotting, separated proteins are transferred to a membrane and probed.

Data set [4] has as its system PARP. The data set can be described thus: PARP cleavage immunoblot in MSN cells. The data set is classed as cell-based, human. How it is done: To determine whether MSN cell death by survivin antisense oligonucleotides was mediated by caspase-3 activation, studies were conducted to examine whether PARP was cleaved following survivin antisense treatment. […] Since no PARP cleavage was detected, further tests were conducted to determine whether survivin antisense-treated cells have any active caspase-3.

“Also recorded” adds a separate entry of the source. Like-named read-outs stand apart in the source and are kept apart here. Oligonucleotides are written 5' to 3', each unit as a sugar letter and its base; * is a phosphorothioate linkage, no mark a phosphodiester; rarer units and linkages stand in square brackets, end groups in braces. Plain capitals give the bases only. d = 2'-deoxy (DNA)

Take “d(GCTTCCCAGTCACATCCTGT) (antisense dG*dC*dT*dT*dC*dC*dC*dA*dG*dT*dC*dA*dC*dA*dT*dC*dC*dT*dG*dT) [Oligo 906]”: in the data set with XIAP [1], the “fold change of XIAP protein over β-tubulin relative to lipofectin” value was found to be 8.3 fold.
In the case of “d(TCTTGGCTCTTTCTCTGTCC) (antisense dT*dC*dT*dT*dG*dG*dC*dT*dC*dT*dT*dT*dC*dT*dC*dT*dG*dT*dC*dC) [Oligo 904, 20-mer phosphorothioate survivin antisense oligonucleotide, complementary to survivin mRNA 5248-5267]”, in the data set on survivin, the “effect on survivin protein levels” value is given as “marked concentration-dependent reduction in survivin protein levels”. The “percentage of survivin protein over β-tubulin relative to lipofectin” value in the data set on survivin (25 nM) is listed as 109.1%; in the data set with survivin (50 nM) it was 97.4%; in the data set on survivin (100 nM), 67.6%; with survivin (200 nM), 45.2%; with survivin (400 nM) it was 45.7%. Besides, the “decrease in survivin protein abundance relative to lipofectin-treated cells” value with survivin (400 nM (FIG. 5A)) came to 54%. Further, the “PARP cleavage (116 kD to 85 kD fragment), words” value in the data set with PARP [2] was “dramatic decrease of the 116 kD PARP protein; also recorded: resulted in the cleavage of the 116 kD caspase-3 substrate PARP”. Besides, the “fold change of XIAP protein over β-tubulin relative to lipofectin” value came to 1.3 fold in the data set with XIAP [3] (25 nM); 1.0 fold with XIAP [3] (50 nM); 0.71 fold with XIAP [3] (100 nM); 0.67 fold in the data set with XIAP [3] (200 nM); 0.66 fold with XIAP [3] (400 nM). Further, the “PARP cleavage, words” value with PARP [4] is “did not activate caspase-3 or cleave the caspase-3 substrate, PARP”.
